Test results reported in patent publication US11739064B2, “HDAC inhibitors and therapeutic methods using the same” (THE BOARD OF TRUSTEES OF THE UNIVERSITY OF ILLINOIS, priority 2015, dated 2023).

Experiments:
HDAC3/NcoR2 complex = HDAC3/NcoR2 complex (Homo sapiens, UniProt O15379); experiment: In vitro HDAC inhibition assay, HDAC3; type: biochemical
HDAC10 = target: T1, HDAC10 (Homo sapiens, UniProt Q969S8); experiment: In vitro HDAC inhibition assay, HDAC10; type: biochemical
T1 sequence (Q969S8 1-669): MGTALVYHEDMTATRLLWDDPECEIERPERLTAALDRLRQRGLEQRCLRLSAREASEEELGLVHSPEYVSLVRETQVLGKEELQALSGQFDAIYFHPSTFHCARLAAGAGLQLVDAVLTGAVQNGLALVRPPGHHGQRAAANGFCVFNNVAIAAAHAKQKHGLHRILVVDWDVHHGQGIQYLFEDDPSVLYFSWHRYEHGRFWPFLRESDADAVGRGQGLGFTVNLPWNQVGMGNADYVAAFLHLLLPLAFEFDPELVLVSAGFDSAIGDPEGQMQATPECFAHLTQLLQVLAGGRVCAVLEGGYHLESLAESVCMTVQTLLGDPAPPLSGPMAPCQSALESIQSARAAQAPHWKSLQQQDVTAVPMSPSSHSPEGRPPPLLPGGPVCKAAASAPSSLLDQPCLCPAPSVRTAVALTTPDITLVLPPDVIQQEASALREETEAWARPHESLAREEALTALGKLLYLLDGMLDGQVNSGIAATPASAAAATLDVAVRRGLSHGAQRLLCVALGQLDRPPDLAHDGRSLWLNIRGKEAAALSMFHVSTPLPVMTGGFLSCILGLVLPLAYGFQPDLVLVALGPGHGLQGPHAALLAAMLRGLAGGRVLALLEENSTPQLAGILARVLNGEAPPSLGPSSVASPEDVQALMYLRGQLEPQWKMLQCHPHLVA

HDAC4 = HDAC4 (Homo sapiens, UniProt P56524); experiment: HDAC isoform inhibition, HDAC4; type: biochemical
Sequence of HDAC4 (P56524 whole entry, canonical isoform): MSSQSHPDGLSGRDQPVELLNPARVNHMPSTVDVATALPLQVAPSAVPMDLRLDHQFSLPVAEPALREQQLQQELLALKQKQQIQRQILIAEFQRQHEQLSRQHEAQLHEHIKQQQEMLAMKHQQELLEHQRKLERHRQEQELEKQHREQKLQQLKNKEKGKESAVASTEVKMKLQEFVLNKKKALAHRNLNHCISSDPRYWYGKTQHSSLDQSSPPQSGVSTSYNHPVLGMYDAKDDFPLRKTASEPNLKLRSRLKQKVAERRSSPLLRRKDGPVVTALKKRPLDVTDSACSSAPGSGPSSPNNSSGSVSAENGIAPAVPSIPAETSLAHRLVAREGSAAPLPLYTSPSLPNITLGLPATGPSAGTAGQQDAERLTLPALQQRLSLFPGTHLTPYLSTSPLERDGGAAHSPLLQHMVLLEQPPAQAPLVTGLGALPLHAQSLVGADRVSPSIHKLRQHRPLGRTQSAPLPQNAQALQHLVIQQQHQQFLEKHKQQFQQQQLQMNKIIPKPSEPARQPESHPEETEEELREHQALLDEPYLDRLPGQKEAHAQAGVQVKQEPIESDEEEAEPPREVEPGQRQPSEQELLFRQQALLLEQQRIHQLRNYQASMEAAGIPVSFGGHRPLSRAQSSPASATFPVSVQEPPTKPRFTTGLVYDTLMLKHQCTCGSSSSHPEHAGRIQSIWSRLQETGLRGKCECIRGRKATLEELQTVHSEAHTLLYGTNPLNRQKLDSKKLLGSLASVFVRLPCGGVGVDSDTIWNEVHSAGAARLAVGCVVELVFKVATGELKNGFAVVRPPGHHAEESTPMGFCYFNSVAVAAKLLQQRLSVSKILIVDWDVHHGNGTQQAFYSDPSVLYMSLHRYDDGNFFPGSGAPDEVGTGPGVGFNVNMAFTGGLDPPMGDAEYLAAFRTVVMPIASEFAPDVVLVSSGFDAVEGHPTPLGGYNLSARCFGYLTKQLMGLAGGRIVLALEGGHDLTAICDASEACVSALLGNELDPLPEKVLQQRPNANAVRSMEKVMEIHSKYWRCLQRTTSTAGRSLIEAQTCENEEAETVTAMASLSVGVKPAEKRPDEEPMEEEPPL

BxPC3 = experiment: In vitro growth inhibition (GI), MTS cell proliferation assay (Table 5), BxPC3; type: cell-based; conditions: Homo sapiens, BXPC-3, 72 hours post-treatment
PANC1 cells = experiment: Scratch-wound cell migration assay; type: cell-based; design: key to Inhibition of cell migration, 24 h / Inhibition of cell migration, 48 h: Level of inhibition (high to low): +++, ++ or +; Level of inhibition (high to low): +++, ++ or +; Level of inhibition (high to low): +++, ++ or +; no inhibition: −
Description: FIG. 2 contains photographs of PANC1 cells treated with present compounds 9 and 6 taken 24 and 48 hours (post wounding) after a scratch was made through a confluent layer of cells; and
PANC1 Cell migration and effect on T and NK Cells. The effect of HDAC6 inhibition on cell migration and cellular cytotoxicity was evaluated. […] Thus, these HDAC6-selective inhibitors could function well to block metastasis. However, in contrast to the effect observed on cell migration, none of the compounds tested affected CD8+ T cell or natural killer (NK) cell-mediated cytotoxicity, despite the ability of the compounds to substantially increase the levels of acetyl-tubulin in these cell lines.

Human HDAC1 = Human HDAC1 (Homo sapiens, UniProt Q13547); experiment: In vitro HDAC inhibition assay, HDAC1; conditions: read-out: HDAC isoform IC50, HDAC1; NI = No inhibition at a concentration of 50 pM (footnote b)
Sequence of Human HDAC1 (Q13547 whole entry, canonical isoform): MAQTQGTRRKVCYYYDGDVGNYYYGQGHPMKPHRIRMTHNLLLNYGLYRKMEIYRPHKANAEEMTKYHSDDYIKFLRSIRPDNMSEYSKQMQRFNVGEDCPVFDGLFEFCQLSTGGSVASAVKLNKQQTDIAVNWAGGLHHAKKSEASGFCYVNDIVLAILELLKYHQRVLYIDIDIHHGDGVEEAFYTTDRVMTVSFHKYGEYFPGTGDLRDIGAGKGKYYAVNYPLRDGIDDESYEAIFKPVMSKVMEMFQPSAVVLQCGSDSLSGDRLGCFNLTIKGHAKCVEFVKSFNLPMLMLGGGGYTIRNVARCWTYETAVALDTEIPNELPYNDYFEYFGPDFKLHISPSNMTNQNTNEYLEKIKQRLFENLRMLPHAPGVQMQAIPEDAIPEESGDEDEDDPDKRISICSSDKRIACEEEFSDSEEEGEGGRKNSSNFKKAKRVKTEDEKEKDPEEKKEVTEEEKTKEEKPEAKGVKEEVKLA

Sequence of HDAC3/NcoR2 complex (O15379 whole entry): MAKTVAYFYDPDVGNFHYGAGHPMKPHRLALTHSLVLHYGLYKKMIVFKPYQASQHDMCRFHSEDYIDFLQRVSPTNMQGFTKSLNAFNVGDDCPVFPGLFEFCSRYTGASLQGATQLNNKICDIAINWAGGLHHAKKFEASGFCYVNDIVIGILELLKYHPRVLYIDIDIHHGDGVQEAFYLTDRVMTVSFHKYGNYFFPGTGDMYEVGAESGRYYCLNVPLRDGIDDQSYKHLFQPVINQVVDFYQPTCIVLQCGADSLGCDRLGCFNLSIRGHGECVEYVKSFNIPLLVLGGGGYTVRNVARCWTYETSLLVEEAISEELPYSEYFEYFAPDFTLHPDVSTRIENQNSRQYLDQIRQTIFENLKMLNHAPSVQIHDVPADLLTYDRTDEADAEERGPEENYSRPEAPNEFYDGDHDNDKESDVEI
Sequence of HDAC3/NcoR2 complex (Q9Y618 395-489 partner limits assumed): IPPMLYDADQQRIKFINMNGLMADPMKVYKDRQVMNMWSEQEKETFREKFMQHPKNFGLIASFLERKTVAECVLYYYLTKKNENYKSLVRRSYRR

Selectivity for HDAC6 (fold) over HDAC3 (HDAC3/NcoR2 complex): 3800 fold | IC50 (HDAC3/NcoR2 complex; NI = No inhibition at a concentration of 50 pM (footnote b), read-out: HDAC isoform IC50, HDAC3): 22.8 µM | Selectivity for HDAC6 (fold) over HDAC10 (HDAC10): >16000 fold | IC50 (HDAC10; NI = No inhibition at a concentration of 50 pM (footnote b), read-out: HDAC isoform IC50, HDAC10): > 100 µM | IC50 (HDAC4): 130 µM | Selectivity for HDAC6 (fold) over HDAC4 (HDAC4): 21600 fold | GI50 (BxPC3): 29 µM | IC50 (Human HDAC1): 16.9 µM
Compound: CC(C)(C)OC(=O)Nc1ccc(-c2cc(C(=O)NCCc3cc(C(=O)NO)no3)no2)cc1 [Compound 6, (4-{3-[2-(3-Hydroxycarbamoyl-isoxazol-5-yl)-ethylcarbamoyl]-isoxazol-5-yl}-phenyl)-carbamic acid tert-butyl ester]
Inhibition of cell migration, 24 h (PANC1 cells; PANC1, 24 h post wounding): + | Inhibition of cell migration, 48 h (PANC1 cells; PANC1, 48 h post wounding): − | Effect on PANC1 cell migration (PANC1 cells; compared to diluent-treated control cells): partial effect
